{"source": "the supplement of paper PMC10307832", "test_in_all_cases": "relative viability (nuclei count vs DMSO), 5 days (fraction); higher = more cells survive", "key": {"NCI-H1915": {"system": "NCI-H1915", "how_it_was_run": "(§1)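 Cells from lung cancer lines were seeded into 1536-well plates and, one day later, dosed by pin tool. Treatments were either a single drug or a fixed dose of an anchor drug with five library-drug doses (not always all listed) in √10 steps. After 5 days, nuclei were stained in a one-step fixation (final 0.05% Triton X-100, 1% formaldehyde, 1 ug/ml Hoechst) and counted on 4× images, and relative viability is the treated-to-vehicle nuclei ratio, as the median of duplicate plates.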"}, "NCI-H23": {"system": "NCI-H23", "how_it_was_run": "as §1"}, "PC-3 [JPC-3]": {"system": "PC-3 [JPC-3]", "how_it_was_run": "as §1"}, "NCI-H1793": {"system": "NCI-H1793", "how_it_was_run": "as §1"}, "LCLC-97TM1": {"system": "LCLC-97TM1", "how_it_was_run": "as §1"}, "LU99A": {"system": "LU99A", "how_it_was_run": "as §1"}, "SK-LU-1": {"system": "SK-LU-1", "how_it_was_run": "as §1"}, "A-427": {"system": "A-427", "how_it_was_run": "as §1"}, "HARA": {"system": "HARA", "how_it_was_run": "as §1"}, "NCI-H460": {"system": "NCI-H460", "how_it_was_run": "as §1"}, "NCI-H650": {"system": "NCI-H650", "how_it_was_run": "as §1"}, "BEN": {"system": "BEN", "how_it_was_run": "as §1"}, "NCI-H441": {"system": "NCI-H441", "how_it_was_run": "as §1"}, "NCI-H2023": {"system": "NCI-H2023", "how_it_was_run": "as §1"}, "NCI-H2170": {"system": "NCI-H2170", "how_it_was_run": "as §1"}, "NCI-H1666": {"system": "NCI-H1666", "how_it_was_run": "as §1"}, "LXF-289": {"system": "LXF-289", "how_it_was_run": "as §1"}, "NCI-H1944": {"system": "NCI-H1944", "how_it_was_run": "as §1"}, "NCI-H322M": {"system": "NCI-H322M", "how_it_was_run": "as §1"}, "NCI-H1395": {"system": "NCI-H1395", "how_it_was_run": "as §1"}, "NCI-H2342": {"system": "NCI-H2342", "how_it_was_run": "as §1"}, "NCI-H2126": {"system": "NCI-H2126", "how_it_was_run": "as §1"}, "LOU-NH91": {"system": "LOU-NH91", "how_it_was_run": "as §1"}, "NCI-H1755": {"system": "NCI-H1755", "how_it_was_run": "as §1"}}}
{"smiles": "CCCCCCCCCCCC1=C(O)C(=O)C=C(O)C1=O", "note": "[Embelin] + O=C(c1cc(Cc2n[nH]c(=O)c3ccccc23)ccc1F)N1CCN(C(=O)C2CC2)CC1 [Olaparib] (partner 8 µM)", "values": [{"measurement": "relative viability", "setting": "NCI-H1915; first compound 0.08 µM", "value": 0.274}, {"measurement": "relative viability", "setting": "NCI-H1915; first compound 0.8 µM", "value": 0.254}, {"measurement": "relative viability", "setting": "NCI-H1915; first compound 2.53 µM", "value": 0.243}, {"measurement": "relative viability", "setting": "NCI-H1915; first compound 8 µM", "value": 0.248}, {"measurement": "relative viability", "setting": "NCI-H23; first compound 0.08 µM", "value": 0.298}, {"measurement": "relative viability", "setting": "NCI-H23; first compound 0.8 µM", "value": 0.257}, {"measurement": "relative viability", "setting": "NCI-H23; first compound 2.53 µM", "value": 0.344}, {"measurement": "relative viability", "setting": "NCI-H23; first compound 8 µM", "value": 0.274}, {"measurement": "relative viability", "setting": "PC-3 [JPC-3]; first compound 0.08 µM", "value": 1.12}, {"measurement": "relative viability", "setting": "PC-3 [JPC-3]; first compound 0.8 µM", "value": 1.17}, {"measurement": "relative viability", "setting": "PC-3 [JPC-3]; first compound 2.53 µM", "value": 1.17}, {"measurement": "relative viability", "setting": "PC-3 [JPC-3]; first compound 8 µM", "value": 1.07}, {"measurement": "relative viability", "setting": "NCI-H1793; first compound 0.08 µM", "value": 0.993}, {"measurement": "relative viability", "setting": "NCI-H1793; first compound 0.8 µM", "value": 1.03}, {"measurement": "relative viability", "setting": "NCI-H1793; first compound 2.53 µM", "value": 1.12}, {"measurement": "relative viability", "setting": "NCI-H1793; first compound 8 µM", "value": 1.05}, {"measurement": "relative viability", "setting": "LCLC-97TM1; first compound 0.08 µM", "value": 0.38}, {"measurement": "relative viability", "setting": "LCLC-97TM1; first compound 0.8 µM", "value": 0.462}, {"measurement": "relative viability", "setting": "LCLC-97TM1; first compound 2.53 µM", "value": 0.445}, {"measurement": "relative viability", "setting": "LCLC-97TM1; first compound 8 µM", "value": 0.45}, {"measurement": "relative viability", "setting": "LU99A; first compound 0.08 µM", "value": 0.293}, {"measurement": "relative viability", "setting": "LU99A; first compound 0.8 µM", "value": 0.218}, {"measurement": "relative viability", "setting": "LU99A; first compound 2.53 µM", "value": 0.281}, {"measurement": "relative viability", "setting": "LU99A; first compound 8 µM", "value": 0.241}, {"measurement": "relative viability", "setting": "SK-LU-1; first compound 0.08 µM", "value": 0.591}, {"measurement": "relative viability", "setting": "SK-LU-1; first compound 0.8 µM", "value": 0.56}, {"measurement": "relative viability", "setting": "SK-LU-1; first compound 2.53 µM", "value": 0.505}, {"measurement": "relative viability", "setting": "SK-LU-1; first compound 8 µM", "value": 0.433}, {"measurement": "relative viability", "setting": "A-427; first compound 0.08 µM", "value": 0.765}, {"measurement": "relative viability", "setting": "A-427; first compound 0.8 µM", "value": 0.872}, {"measurement": "relative viability", "setting": "A-427; first compound 2.53 µM", "value": 0.792}, {"measurement": "relative viability", "setting": "A-427; first compound 8 µM", "value": 0.524}, {"measurement": "relative viability", "setting": "HARA; first compound 0.08 µM", "value": 0.85}, {"measurement": "relative viability", "setting": "HARA; first compound 0.8 µM", "value": 0.734}, {"measurement": "relative viability", "setting": "HARA; first compound 2.53 µM", "value": 1.12}, {"measurement": "relative viability", "setting": "HARA; first compound 8 µM", "value": 0.763}, {"measurement": "relative viability", "setting": "NCI-H460; first compound 0.08 µM", "value": 0.45}, {"measurement": "relative viability", "setting": "NCI-H460; first compound 0.8 µM", "value": 0.431}, {"measurement": "relative viability", "setting": "NCI-H460; first compound 2.53 µM", "value": 0.421}, {"measurement": "relative viability", "setting": "NCI-H460; first compound 8 µM", "value": 0.468}, {"measurement": "relative viability", "setting": "NCI-H650; first compound 0.08 µM", "value": 0.385}, {"measurement": "relative viability", "setting": "NCI-H650; first compound 0.8 µM", "value": 0.407}, {"measurement": "relative viability", "setting": "NCI-H650; first compound 2.53 µM", "value": 0.371}, {"measurement": "relative viability", "setting": "NCI-H650; first compound 8 µM", "value": 0.381}, {"measurement": "relative viability", "setting": "BEN; first compound 0.08 µM", "value": 1.15}, {"measurement": "relative viability", "setting": "BEN; first compound 0.8 µM", "value": 1.37}, {"measurement": "relative viability", "setting": "BEN; first compound 2.53 µM", "value": 1.13}, {"measurement": "relative viability", "setting": "BEN; first compound 8 µM", "value": 1.22}, {"measurement": "relative viability", "setting": "NCI-H441; first compound 0.08 µM", "value": 0.624}, {"measurement": "relative viability", "setting": "NCI-H441; first compound 0.8 µM", "value": 0.627}, {"measurement": "relative viability", "setting": "NCI-H441; first compound 2.53 µM", "value": 0.521}, {"measurement": "relative viability", "setting": "NCI-H441; first compound 8 µM", "value": 0.618}, {"measurement": "relative viability", "setting": "NCI-H2023; first compound 0.08 µM", "value": 0.432}, {"measurement": "relative viability", "setting": "NCI-H2023; first compound 0.8 µM", "value": 0.455}, {"measurement": "relative viability", "setting": "NCI-H2023; first compound 2.53 µM", "value": 0.509}, {"measurement": "relative viability", "setting": "NCI-H2023; first compound 8 µM", "value": 0.229}, {"measurement": "relative viability", "setting": "NCI-H2170; first compound 0.08 µM", "value": 0.569}, {"measurement": "relative viability", "setting": "NCI-H2170; first compound 0.8 µM", "value": 0.554}, {"measurement": "relative viability", "setting": "NCI-H2170; first compound 2.53 µM", "value": 0.586}, {"measurement": "relative viability", "setting": "NCI-H2170; first compound 8 µM", "value": 0.592}, {"measurement": "relative viability", "setting": "NCI-H1666; first compound 0.08 µM", "value": 0.749}, {"measurement": "relative viability", "setting": "NCI-H1666; first compound 0.8 µM", "value": 0.779}, {"measurement": "relative viability", "setting": "NCI-H1666; first compound 2.53 µM", "value": 0.827}, {"measurement": "relative viability", "setting": "NCI-H1666; first compound 8 µM", "value": 0.713}, {"measurement": "relative viability", "setting": "LXF-289; first compound 0.08 µM", "value": 1.06}, {"measurement": "relative viability", "setting": "LXF-289; first compound 0.8 µM", "value": 1.17}, {"measurement": "relative viability", "setting": "LXF-289; first compound 2.53 µM", "value": 1.26}, {"measurement": "relative viability", "setting": "LXF-289; first compound 8 µM", "value": 1.14}, {"measurement": "relative viability", "setting": "NCI-H1944; first compound 0.08 µM", "value": 0.402}, {"measurement": "relative viability", "setting": "NCI-H1944; first compound 0.8 µM", "value": 0.474}, {"measurement": "relative viability", "setting": "NCI-H1944; first compound 2.53 µM", "value": 0.472}, {"measurement": "relative viability", "setting": "NCI-H1944; first compound 8 µM", "value": 0.425}, {"measurement": "relative viability", "setting": "NCI-H322M; first compound 0.08 µM", "value": 0.776}, {"measurement": "relative viability", "setting": "NCI-H322M; first compound 0.8 µM", "value": 0.617}, {"measurement": "relative viability", "setting": "NCI-H322M; first compound 2.53 µM", "value": 0.75}, {"measurement": "relative viability", "setting": "NCI-H322M; first compound 8 µM", "value": 0.774}, {"measurement": "relative viability", "setting": "NCI-H1395; first compound 0.08 µM", "value": 0.539}, {"measurement": "relative viability", "setting": "NCI-H1395; first compound 0.8 µM", "value": 0.486}, {"measurement": "relative viability", "setting": "NCI-H1395; first compound 2.53 µM", "value": 0.461}, {"measurement": "relative viability", "setting": "NCI-H1395; first compound 8 µM", "value": 0.443}, {"measurement": "relative viability", "setting": "NCI-H2342; first compound 0.08 µM", "value": 0.482}, {"measurement": "relative viability", "setting": "NCI-H2342; first compound 0.8 µM", "value": 0.432}, {"measurement": "relative viability", "setting": "NCI-H2342; first compound 2.53 µM", "value": 0.459}, {"measurement": "relative viability", "setting": "NCI-H2342; first compound 8 µM", "value": 0.427}, {"measurement": "relative viability", "setting": "NCI-H2126; first compound 0.08 µM", "value": 0.901}, {"measurement": "relative viability", "setting": "NCI-H2126; first compound 0.8 µM", "value": 0.954}, {"measurement": "relative viability", "setting": "NCI-H2126; first compound 2.53 µM", "value": 0.936}, {"measurement": "relative viability", "setting": "NCI-H2126; first compound 8 µM", "value": 0.892}, {"measurement": "relative viability", "setting": "LOU-NH91; first compound 0.08 µM", "value": 0.931}, {"measurement": "relative viability", "setting": "LOU-NH91; first compound 0.8 µM", "value": 1.01}, {"measurement": "relative viability", "setting": "LOU-NH91; first compound 2.53 µM", "value": 0.988}, {"measurement": "relative viability", "setting": "LOU-NH91; first compound 8 µM", "value": 0.924}, {"measurement": "relative viability", "setting": "NCI-H1755; first compound 0.08 µM", "value": 0.986}, {"measurement": "relative viability", "setting": "NCI-H1755; first compound 0.8 µM", "value": 0.879}, {"measurement": "relative viability", "setting": "NCI-H1755; first compound 2.53 µM", "value": 0.901}, {"measurement": "relative viability", "setting": "NCI-H1755; first compound 8 µM", "value": 0.849}]}
